Key:
Type in all cases: in vivo
avocados = tested on: avocados
Experimental: Example 11. The ripening characteristics of avocados exposed to AITC vapor was analyzed. Treatment groups consisted of avocados that were: exposed to the vapor of 125 μL of AITC in a Petri dish for 30 min and 18 hours; exposed to the vapor of 500 μL of AITC for 30 minutes and 18 hours; untreated and kept 18 hours in a bin; and treated with a coating agent. Two sets of the preceding test groups were studied. One set was treated when cold along with coated fruit (i.e., fruit treated with a coating agent (95 wt % glyceryl monostearate and 5 wt % sodium stearate) and another set was treated when warm (one day out of cold storage). Daily measurements were made of respiration and firmness (using a durometer). At the start of the test, the avocados were placed in cold storage. After one day, the cold treated avocados were treated with AITC directly after removal from cold storage. The coated group was treated at this time. The warm treated avocados were allowed to warm to room temperature. On the second day, measurements were begun on the cold treated avocados and AITC treatments began on the warm treated samples. On the third day, measurements began on the warm treated groups. […]
Example 23: The ripening characteristics of avocados exposed to AITC vapor, a coating agent (95 wt % glyceryl monostearate and 5 wt % sodium stearate), and AITC plus the coating agent was analyzed. […]

mold = assay: Mold growth on produce exposed to AITC in an airtight bin (general description); details: for effect on mold growth on the produce: AITC concentration of 1000 ppm, airtight bin
Experimental: The plurality of produce items is contacted with the antimicrobial agent for a length of time in a range of 1 minute to 100 hours (e.g., 10 minutes to 1 hour). The length of time is dependent on a variety of factors, such as type of produce, target pathogen, and the degree to which the enclosure is sealed. Examples include exposure times between 15 minutes and 96 hours for allyl isothiocyanate (AITC) in an airtight bin. […] Lower antimicrobial agent concentrations with longer exposure times or higher antimicrobial concentrations with shorter exposure times can also be used. For example, the plurality of produce items is contacted with the antimicrobial agent for a length of time in a range of 15 minute to 72 hours.
A concentration of the antimicrobial agent in the headspace of the enclosure is typically in a range of about 20 parts per million by volume (ppmv) to about 5000 ppmv (e.g., about 550 ppmv to about 4800 ppmv, or about 25 ppmv to about 1250 ppmv). Depending on type of produce and exposure time in the enclosure, antimicrobial agent concentrations greater than about 2200 ppmv can sometimes damage the produce. […] In some embodiments, the antimicrobial agent is provided in a concentration to the enclosure in a headspace at least about 1200 ppmv, at least about 1250 ppmv, or about 1250 ppmv to about 5000 ppmv, or about 1250 ppmv to about 4900 ppmv.

Botrytis cinerea (Bc) = assay: Antifungal activity of AITC vapor against Botrytis cinerea in strawberries; details: Example 17; suspended strawberries; coating agent 50 g/L dip; AITC 125 μL 30 minutes; by day 5

## C=CCN=C=S [AITC, allyl isothiocyanate]
avocados; Example 23, avocados, vapor of 500 μL, 11 days of incubation
  quality and defects of treated avocados: higher quality and had fewer defects than the untreated avocados and the avocados treated with the coating agent alone
avocados; in vivo
  effect on avocado peel and firmness: darkening and thickening of the avocado peel and a prolonged feeling a firmness
mold; exposure time of 15 minutes
  effect on mold growth on the produce: slowed mold growth on the produce
mold; exposure time of 30 min or longer
  effect on mold growth on the produce: showed good efficacy
mold; AITC concentrations in a range of 550 ppmv to 4800 ppmv
  effect on mold growth: some inhibitory effect on mold growth
mold; AITC concentrations over 1000 ppmv
  effect on mold growth: tended to be completely inhibitory
Botrytis cinerea (Bc)
  reduction in incidence of mold versus the untreated test group: over 80%

From patent US20250204541A1, “GAS PHASE TREATMENT OF PRODUCE” (priority 2022, published 2025)
